This is an account of results in article PMC9919699, “A Comprehensive Approach to Derivatization: Elemental Composition, Biochemical, and In Silico Studies of Metformin Derivatives Containing Copper and Zinc Complexes” (Molecules, 2023).

Read-outs that look alike come from different tables or passages of the source.

One test concerns α-glucosidase. The experiment in a line: α-glucosidase enzyme inhibition assay (starch substrate, anthrone reagent, 640 nm). It is filed as biochemical. The procedure:
The α-glucosidase-inhibitory activity of all derivatives of metformin was tested using the method previously described. Three test tubes were marked as test (T), blank (B), and control (C). Then, 200 µL of substrate (starch) and enzyme (α-glucosidase) was added to test tubes T and C. The contents were mixed well, and then the test tubes were incubated at 37 °C for 30 min. After incubation, trichloroacetic acid was added to all test tubes, which were then centrifuged for 10 min. Free glucose was available after the reaction with anthrone reagent (1.5 mL). The contents in the test tubes were boiled for 15 min, and the absorbance was read at a wavelength at 640 nm. The percentage inhibition was calculated using the following formula:Percentage inhibition = OD of control − OD of test tube/OD of control × 100.

A further test concerns α-amylase. Kind of test: α-amylase enzyme inhibition assay (starch, dinitro-salicylic acid, 540 nm). Type of test: biochemical. As to the method:
All derivatives of metformin were analyzed for serum amylase inhibitory activity using the Yukihoko Hara method. Three test tubes were labeled as blank (B), test (T), and control (C). Then, 2.5 mL of phosphate buffer (pH 6.8) was added to each test tube. Next, 1 mL of starch and 1 mL of 2 N sodium chloride solution were added to each test tube. The test tubes were incubated at 37 °C for 10 min. After incubation, 0.5 mL of derivatives was added to test tube T, followed by 0.2 mL of enzyme (α-amylase). All contents were mixed well, and then the tube was incubated at 37 °C for 10 min. In the control test tube, normal saline (2 N), starch solution (1 mL), and enzyme solution (0.2 mL) were added before incubating at 37 °C for 10 min. In the blank test tube, only 5.7 mL of distilled water was added. Dinitro-salicylic acid (0.2 mL) was added to all test tubes. The contents were mixed well, and the test tubes were kept in a boiling water bath for 15 min. The intensity of reddish orange was read at 540 nm. The percentage inhibitory action of serum amylase was calculated using the following formula:Percentage inhibition = OD of control − OD of test tube/OD of control × 100.

[1] abbreviates: 250 µg/mL, Table 6 (MZn series).
The mark [2] stands for this setting: 500 µg/mL, Table 6 (MZn series).
Setting [3] is: 1000 µg/mL, Table 6 (MZn series).
Where [4] appears, read: 250 µg/mL, Table 9 (MZn series).
Where [5] appears, read: 500 µg/mL, Table 9 (MZn series).
The mark [6] stands for this setting: 1000 µg/mL, Table 9 (MZn series).
[7] abbreviates: Table 9 (MZn series), read-out: IC50.
[8] abbreviates: 250 µg/mL, Table 4 (Met series).
Where [9] appears, read: 500 µg/mL, Table 4 (Met series).
Setting [10] is: 1000 µg/mL, Table 4 (Met series).
The mark [11] stands for this setting: Table 4 (Met series), read-out: IC50.
The mark [12] stands for this setting: 250 µg/mL, Table 7 (Met series).
Setting [13] is: 500 µg/mL, Table 7 (Met series).
[14] abbreviates: 1000 µg/mL, Table 7 (Met series).
Setting [15] is: Table 7 (Met series), read-out: IC50.
Where [16] appears, read: 250 µg/mL, Table 5 (MCu series).
Where [17] appears, read: 500 µg/mL, Table 5 (MCu series).
Where [18] appears, read: 1000 µg/mL, Table 5 (MCu series).
[19] abbreviates: Table 5 (MCu series), read-out: IC50.
Setting [20] is: 250 µg/mL, Table 8 (MCu series).
Where [21] appears, read: 500 µg/mL, Table 8 (MCu series).
[22] abbreviates: 1000 µg/mL, Table 8 (MCu series).
The mark [23] stands for this setting: Table 8 (MCu series), read-out: IC50.

For `CN(C)C(=N)NC(=N)N=Cc1ccccc1.CN(C)C(=N)NC(=N)N=Cc1ccccc1.O.O.O.O.O.O=S(=O)([O-])[O-].[Zn+2]` [MZn1], the “% Inhibition” value with α-glucosidase (setting [1]) is listed as 54.74 ± 0.15%; in the test on α-glucosidase (setting [2]) it was 62.48 ± 0.19%; with α-glucosidase (setting [3]), 77.57 ± 0.20%; with α-amylase (setting [4]) it was 31.46 ± 0.34%; in the test with α-amylase (setting [5]) it was 55.54 ± 0.34%; in the test on α-amylase (setting [6]) it was 82.60 ± 0.40%. Moreover, the half-maximal inhibitory concentration (IC50) on α-glucosidase (Table 6 (MZn series), read-out: IC50) is 700 µM; at α-amylase (setting [7]) it was 750 µM.
For the compound `CN(C)C(=N)NC(=N)N=C(c1ccccc1)c1ccccc1` [Met7, N′-(diphenylmethylidene)-N,N-dimethyltriimidodicarbonic diamide], the “% Inhibition” value with α-glucosidase (setting [8]) is recorded as 27.42 ± 0.32%; with α-glucosidase (setting [9]) it was 41.84 ± 0.15%; in the test on α-glucosidase (setting [10]), 55.77 ± 0.01%; with α-amylase (setting [12]), 24.25 ± 0.20%; in the test on α-amylase (setting [13]), 34.45 ± 0.26%; in the test on α-amylase (setting [14]), 48.33 ± 0.51%. For the same compound, the IC50 on α-glucosidase (setting [11]) worked out at 900 µM; on α-amylase (setting [15]) it was 1400 µM.
With `CN(C)C(=N)NC(=N)N=Cc1ccccc1.CN(C)C(=N)NC(=N)N=Cc1ccccc1.O.O.O.O.O.O=S(=O)([O-])[O-].[Cu+2]` [MCu1], the IC50 at α-glucosidase stood at 421.7 µg/mL; at α-glucosidase (setting [19]) it was 600 µM; on α-amylase (setting [23]) it was 990 µM. Besides, the “% Inhibition” value with α-glucosidase (setting [16]) is 44.24 ± 0.10%; in the test on α-glucosidase (setting [17]), 61.46 ± 0.31%; in the test with α-glucosidase (setting [18]) it was 81.13 ± 0.08%; with α-amylase (setting [20]), 19.44 ± 0.46%; in the test on α-amylase (setting [21]), 43.71 ± 0.17%; with α-amylase (setting [22]), 73.31 ± 0.51%.
As for `CN(C)C(=N)NC(=N)N=Cc1ccccc1O.CN(C)C(=N)NC(=N)N=Cc1ccccc1O.O.O.O.O.O.O=S(=O)([O-])[O-].[Cu+2]` [MCu2], the “% Inhibition” value with α-glucosidase (setting [16]) was 31.13 ± 0.04%; with α-glucosidase (setting [17]), 48.50 ± 0.22%; in the test with α-glucosidase (setting [18]), 77.32 ± 0.17%; in the test on α-amylase (setting [20]), 29.52 ± 0.28%; in the test on α-amylase (setting [21]) it was 44.56 ± 0.34%; in the test with α-amylase (setting [22]), 77.56 ± 0.34%. Moreover, the IC50 at α-amylase (setting [23]) was found to be 790 µM.
On to `C/C(=N\C(=N)NC(=N)N(C)C)c1ccccc1` [Met6, N,N-dimethyl-N′-[(1E)-1-phenylethylidene]triimidodicarbonic diamide], for which the “% Inhibition” value in the test on α-glucosidase (setting [8]) was determined as 16.41 ± 0.19%; in the test on α-glucosidase (setting [9]), 28.86 ± 0.15%; with α-glucosidase (setting [10]), 51.47 ± 0.26%; in the test on α-amylase (setting [12]) it was 18.48 ± 0.26%; with α-amylase (setting [13]), 33.35 ± 0.20%; in the test with α-amylase (setting [14]), 41.34 ± 0.17%. Besides, the IC50 at α-glucosidase (setting [11]) worked out at 1300 µM; on α-amylase (setting [15]) it was 1700 µM.
For `CN(C)C(=N)NC(=N)N=C(c1ccccc1)C(O)c1ccccc1` (stereo not drawn) [Met9, N′-[(1Z)-2-hydroxy-1,2-diphenylethylidene]-N,N-dimethyltriimidodicarbonic diamide], the “% Inhibition” value with α-glucosidase (setting [8]) turned out to be 10.79 ± 0.10%; in the test with α-glucosidase (setting [9]), 29.86 ± 0.10%; in the test on α-glucosidase (setting [10]), 39.09 ± 0.05%; in the test on α-amylase (setting [12]) it was 5.41 ± 0.20%; with α-amylase (setting [13]), 8.61 ± 0.25%; with α-amylase (setting [14]), 19.71 ± 0.46%. Also, the IC50 at α-amylase (setting [15]) was 790 µM.
Regarding `CN(C)C(=N)N=C(N)N` [Met, N,N-dimethyltriimidodicarbonic diamide, reference compound], the “% Inhibition” value is 41.73 ± 0.10% in the test on α-glucosidase (setting [8]); 52.83 ± 0.11% in the test on α-glucosidase (setting [9]); 81.30 ± 0.10% in the test with α-glucosidase (setting [10]); 55.27 ± 0.20% with α-amylase (setting [12]); 63.18 ± 0.20% with α-amylase (setting [13]); 85.25 ± 0.32% in the test on α-amylase (setting [14]). For the same compound, the IC50 stood at 4800 µM on α-glucosidase (setting [11]) and 9400 µM on α-amylase (setting [15]).
As for `C=NC(=N)NC(=N)N(C)C.C=NC(=N)NC(=N)N(C)C.O.O.O.O.O.O=S(=O)([O-])[O-].[Cu+2]` [MCu4], the “% Inhibition” value with α-glucosidase (setting [16]) is 18.64 ± 0.07%; in the test on α-glucosidase (setting [17]), 31.28 ± 0.08%; in the test with α-glucosidase (setting [18]), 51.20 ± 0.18%; in the test with α-amylase (setting [20]) it was 19.48 ± 0.40%; with α-amylase (setting [21]), 31.46 ± 0.23%; with α-amylase (setting [22]), 48.32 ± 0.51%. The IC50 came out at 500 µM on α-glucosidase (setting [19]) and 300 µM at α-amylase (setting [23]).
With `CN(C)C(=N)NC(=N)N=C(c1ccccc1)c1ccccc1.CN(C)C(=N)NC(=N)N=C(c1ccccc1)c1ccccc1.O.O.O.O.O.O=S(=O)([O-])[O-].[Cu+2]` [MCu7], the “% Inhibition” value is reported as 29.47 ± 0.18% in the test with α-glucosidase (setting [16]); 37.37 ± 0.30% in the test with α-glucosidase (setting [17]); 48.29 ± 0.28% with α-glucosidase (setting [18]); 15.37 ± 0.23% in the test with α-amylase (setting [20]); 38.31 ± 0.46% in the test on α-amylase (setting [21]); 55.43 ± 0.23% in the test on α-amylase (setting [22]). The IC50 at α-glucosidase (setting [19]) was determined as 320 µM; on α-amylase (setting [23]), 200 µM.
Turning to `COc1cc(C=NC(=N)NC(=N)N(C)C)ccc1O.COc1cc(C=NC(=N)NC(=N)N(C)C)ccc1O.O.O.O.O.O.O=S(=O)([O-])[O-].[Cu+2]` [MCu8], the “% Inhibition” value with α-glucosidase (setting [16]) is reported as 41.50 ± 0.26%; in the test with α-glucosidase (setting [17]), 67.35 ± 35%; with α-glucosidase (setting [18]), 83.14 ± 0.09%; in the test on α-amylase (setting [20]) it was 42.68 ± 0.46%; with α-amylase (setting [21]) it was 61.35 ± 0.51%; with α-amylase (setting [22]), 84.35 ± 0.51%. The IC50 on α-glucosidase (setting [19]) was 720 µM; at α-amylase, 712.6 µg/mL; at α-amylase (setting [23]), 900 µM.
`C=NC(=N)NC(=N)N(C)C.C=NC(=N)NC(=N)N(C)C.O.O.O.O.O.O=S(=O)([O-])[O-].[Zn+2]` [MZn4]: the “% Inhibition” value with α-glucosidase (setting [1]) amounted to 11.30 ± 0.15%; with α-glucosidase (setting [2]), 13.59 ± 0.20%; with α-glucosidase (setting [3]), 14.71 ± 0.26%; with α-amylase (setting [4]) it was 15.55 ± 0.34%; in the test on α-amylase (setting [5]) it was 31.49 ± 0.28%; in the test on α-amylase (setting [6]), 54.44 ± 0.28%. Also, the IC50 on α-amylase (setting [7]) worked out at 500 µM.
